US7034020B2, “Derivatives of butyric acid and uses thereof” (The University of Arkansas for Medical Science, priority 1999, dated 2006)

Assays:
[1] = tested on: KLH-specific Th1 cells (clone C3); assay: Cell cycle analysis (DNA content) of IL-2-stimulated Th1 cells; type: cell-based, C57BL/10 mice
Protocol: KLH-specific, Th1 cells (clone C3) are left unstimulated (resting), or are stimulated with IL-2 (10% Con A CM) in the presence or absence of MEB (1 mM). The Th1 cells are collected after 48 hours, and assayed for DNA content.
KLH-specific Th1 cells (clone C3) were stimulated with IL-2 (10% Con A CM) at the initiation of culture, and then again at 24, 48, and 96 hours (FIG. 8A). Some cultures also received a single dose of MEB (1 mM) at times 0, 15, 24 or 39 hours after the initiation of culture (FIGS. 8B, 8C, 8D, and 8E, respectively). The Th1 cells were collected at 0, 48, 72, 96 or 120 hours after the initiation of culture and assayed for DNA content.
If the ability of butyrate and its derivatives to induce Th1 cell tolerance is linked to their ability to block antigen-activated Th1 cells in G1, their therapeutic importance is enhanced if MEB induces G1 cell cycle blockade regardless of when in the cell cycle the compound is added. MEB is added to cultures of IL-2-stimulated Th1 at various time points. In the absence of MEB, it is shown that approximately 50% of IL-2-activated Th1 cells have exited G1 by Day 2 (FIG. 8). I n contrast, if MEB is added at the initiation of culture, over 97% of the IL-2-stimulated Th1 cells remain in G0/G1 for the duration of the experiment (120 hours). […] If MEB is added 24 hours instead of 15 hours after IL-2 stimulation, 89% of the Th1 cells are blocked in G1 phase by 48 h, and the cell cycle profile looks very similar to that obtained if MEB is added at the initiation of culture. Finally, even if MEB is added as late as 39 hours after IL-2 stimulation, 87% of the Th1 cells (as compared to 49.9% of controls) are sequestered in G0/G1 when DNA content is measured at 72 hours.
To examine DNA content, Th1 cells were fixed in prechilled 70% ethanol overnight at 4° C. The fixed Th1 cells were next washed in PBS, resuspended in 1 ml of staining buffer containing RNase (1 mg/ml; Sigma) and propidium iodide (50 μg/ml; Sigma), incubated for 20 minutes in the dark at 20° C., and analyzed by flow cytometry using a FACSCalibur (Becton Dickinson, Moutain View, Calif.). The data were analyzed using the ModFit DNA analysis program (Verity Software House).

[2] = tested on: isotype-specific anti-ovalbumin antibody; assay: Isotype-specific anti-ovalbumin antibody after a single dose of MEB, primary and secondary response; type: in vivo, C57BL/10 mice
Protocol: C57BL/10 mice are injected ip with ovalbumin/CFA on day 0, followed by a single ip injection of saline or MEB (0.15 mmol) on Days 2 or 3. The mice are reimmunized with ovalbumin sc on Day 10. Isotype-specific anti-ovalbumin antibody generated during the primary immune response (FIG. 4A), and the secondary immune response (FIG. 4B) are measured in the serum at day 10 and day 16, respectively. (FIG. 4C). […] This experiment was repeated, and the proliferation data represents the means of the two experiments.
The butyrate derivatives are tested for their ability to suppress lymphocyte activity in vivo. C57BL/10 mice (5 mice/group) are injected ip with 100 μg of ovalbumin in conjunction with complete Freund's adjuvant on Day 0. In one experiment, the mice also receive one ip injection per day of the butyrate derivatives (0.091 mmol) on Days 1–3. Serum samples are obtained 10 days after the initial injection with ovalbumin, and tested for the presence of anti-ovalbumin antibodies using an ELISA. To perform the ELISA 96 well plates (Costar 3595) are first incubated with ovalbumin (100 μl/well of 100 μg/ml in PBS) overnight at 4° C. The plates are then washed 4 times with PBS and 0.5% Tween 20, blocked with 1% fetal calf serum for 30 minutes at 37° C., and washed again. Individual serum samples are added (diluted 1/100 or 1/1000 in PBS), and the plates are incubated for 2 hours at 20° C. The plates were next washed 7 times with PBS/Tween, and alkaline phosphate (AP)-labeled goat anti-mouse IgG, IgA, IgM (H+L) (Zymed) is added ( 1/1000) for 1 hour at 20° C. The plates are again washed 7 times with PBS/Tween, alkaline phosphate substrate (1 mg/ml) is added. After 10 minutes, Ig levels are quantified by an ELISA reader (absorbance 405 nm). The concentration of anti-ovalbumin is determined by comparison with a standard curve obtained using mouse anti-ovalbumin antibody (Sigma; St. Louis, Mo.). To measure isotype-specific anti-ovalbumin antibodies, serum samples (diluted at 1/300 or 1/1000) are incubated on the ovalbumin-coated plates as described above. After washing, biotinylated detecting antibodies directed against mouse IgG2a (rat IgG1, clone R19–15), IgG2b (rat IgG2a, clone R12–3) IgG1 (rat IgG1, clone A85–1), or IgM (rat IgG2a, clone R6–60.2) (all purchased from PharMingen, La Jolla, Calif.) are added at 2.5 μg/ml for one hour at 20° C. followed by AP-labeled ExtrAvidin (Sigma) for one hour at 20° C. and AP substrate. Ig levels are presented as OD measurements. […]

[3] = single ip dose 0.15 mmol on Day 2 or 3, serum day 10
[4] = single ip dose 0.15 mmol on day 2, serum day 10
[5] = single ip dose 0.15 mmol on day 2 or day 3, reimmunized Day 10, serum day 16
[6] = single ip dose 0.15 mmol, reimmunized Day 10, serum day 16

CCCC(=O)OCCN1CCOCC1.Cl [MEB, 2-(4-Morpholinyl)ethyl butyrate hydrochloride]
Th1 cells remaining in G0/G1 ([1]; IL-2 (10% Con A CM) plus MEB 1 mM, 48 hours): essentially all
IL-2-stimulated Th1 cells in G0/G1 ([1]; MEB 1 mM added 15 hours after IL-2, by 96 hours (control 56.9%)): 79.3%
IL-2-stimulated Th1 cells in G1 ([1]; MEB 1 mM added 24 hours after IL-2, by 48 h): 89%
IL-2-stimulated Th1 cells in G0/G1 ([1]; MEB 1 mM added 39 hours after IL-2, at 72 hours (control 49.9%)): 87%
IL-2-stimulated Th1 cells in G0/G1 ([1]; MEB 1 mM added at initiation of culture, for duration of experiment (120 hours)): over 97%
IgG2a anti-ovalbumin antibody, primary response [2, 3]: significantly decreased
IgG2b anti-ovalbumin antibody, primary response [2, 3]: significantly decreased
IgG, anti-ovalbumin antibody, primary response [2, 4]: decreased, albeit not dramatically
IgM anti-ovalbumin antibody, primary response [2, 4]: decreased, albeit not dramatically
Decrease of IgG2a anti-ovalbumin antibody, secondary response, compared to controls [2, 5]: 80%
Decrease of IgG2b anti-ovalbumin antibody, secondary response, compared to controls [2, 5]: 80%
IgG1 anti-ovalbumin production, secondary response [2, 6]: significantly decreased
IgM anti-ovalbumin production, secondary response [2, 6]: unaffected
